The structures appear in SMILES notation. The source made the active and inactive calls. The calls are words filed in the database; no cut-off is given here.

The subject of assay [1] is Saccharomyces cerevisiae. Briefly: Increased sensitivity to growth inhibition in Saccharomyces cerevisiae KLN1 carrying erg1 pL37P allele after 24 hrs relative to wild type at 30 degC. The assay is classed as functional.
Assay [2] concerns Saccharomyces cerevisiae. Description: Increased sensitivity to growth inhibition in Saccharomyces cerevisiae KLN1 carrying erg1 pR269G allele after 24 hrs relative to wild type at 30 degC. The assay is classed as functional.
The subject of assay [3] is Saccharomyces cerevisiae. Description: Growth inhibition in Saccharomyces cerevisiae KLN1 carrying erg1 pR269G allele at 1 ug/ml after 24 hrs st 30 degC. It counts as functional, organism-based.
Assay [4] deals with Saccharomyces cerevisiae. Briefly: Growth inhibition in Saccharomyces cerevisiae KLN1 carrying erg1 pL37P allele at 0.2 ug/ml after 24 hrs at 30 degC. The assay is classed as functional, organism-based.
For assay [5], the system named is Saccharomyces cerevisiae. Briefly: Growth inhibition in Saccharomyces cerevisiae KLN1 carrying erg1 pG30S allele at 0.5 ug/ml after 24 hrs at 30 degC. The assay is classed as functional, organism-based.

Turning to `CN(C/C=C/C#CC(C)(C)C)Cc1cccc2ccccc12` [TERBINAFINE], the Fold change in the assay with Saccharomyces cerevisiae [1] is listed as more than 10; in the assay with Saccharomyces cerevisiae [2], more than 5. Further, the outcome with Saccharomyces cerevisiae [3], in the assay on Saccharomyces cerevisiae [4] and in the assay with Saccharomyces cerevisiae [5] was Active.
For the molecule `CC(=O)N1CCN(c2ccc(OCC3COC(Cn4ccnc4)(c4ccc(Cl)cc4Cl)O3)cc2)CC1` (centres undefined) [KETOCONAZOLE], the Fold change in the assay with Saccharomyces cerevisiae [1] is recorded as 5; in the assay with Saccharomyces cerevisiae [2], 2.
Regarding `CN(C/C=C/c1ccccc1)Cc1cccc2ccccc12` [NAFTIFINE], the results for the Fold change with Saccharomyces cerevisiae [1] and in the assay with Saccharomyces cerevisiae [2] were more than 25 and more than 10, respectively.
